Measured values: PMC10530208 (Cell reports, 2023)
Where a name gives a salt, the structure may show the parent alone. Blank lines part the entries; values can stand above or below the compound they belong to.

Key:
[1] = tested on: C. parvum; assay: C. parvum growth assay in HCT-8 cells: indole analog screen and dose-response; format: cell-based, Cryptosporidium parvum; settings: for Effect on Cp infection in the indole analog screen: 1 mM, HCT-8 cells; for EC50: Cryptosporidium parvum, HCT-8, 24 h, read-out: Cp EC50
[2] = tested on: C. parvum; assay: Initial screen of metabolites on C. parvum growth in HCT-8 cells; format: cell-based, Cryptosporidium parvum; settings: 1 mM or 0.1 mM, 24 hpi
[3] = tested on: C. parvum; assay: Sliding window treatment with indoles; format: cell-based, Cryptosporidium parvum; settings: EC90 concentration
[4] = tested on: C. parvum; assay: Antibody and EdU labeling of C. parvum life cycle stages; format: cell-based, Cryptosporidium parvum; settings: EC90 concentration; for Effect on Cp life cycle progression: first 24 hpi
[5] = tested on: C. parvum; assay: Air-liquid interface; format: cell-based, Cryptosporidium parvum; settings: for Time after washout to significant recovery in Cp growth / Cp growth recovery after washout: ALI; for Time after washout to significant recovery in Cp growth: treated at EC50 for two days; for EC50 / EC90: Cryptosporidium parvum; for EC50: read-out: Cp EC50 in ALI cultures; for EC90: read-out: Cp EC90 in ALI cultures
[6] = tested on: HCT-8 cells; assay: Seahorse metabolic assays; format: cell-based, human; settings: 18 h; indole 0.5-2 mM, 7CNI 0.25-1 mM
[7] = tested on: Cp mitosome; assay: MitoTracker staining of indole treated C. parvum; format: cell-based, Cryptosporidium parvum; settings: indole 1.76 mM, 7CNI 1 mM, CCCP 10 μM; 2 h or 24 h
[8] = tested on: C. parvum-infected GKO mice; assay: Metabolite treatment of C. parvum-infected GKO mice; format: in vivo, mouse; settings: 50 mg/kg oral gavage twice daily for 7 days
[9] = tested on: C. parvum; assay: C. parvum growth assay with mitochondrial inhibitors; format: cell-based, Cryptosporidium parvum; settings: read-out: Cp EC50
[10] = tested on: HCT-8 cells; assay: Host nuclei ratio with mitochondrial inhibitors; format: cell-based, human; settings: 40 μM and 20 μM
[11] = tested on: HCT-8 cells; assay: Initial metabolite screen: host cell numbers; format: cell-based, human; settings: 1 mM
[12] = tested on: C. parvum; assay: C. parvum growth assay in HCT-8 AhR WT vs AhR KO cell lines; format: cell-based, Cryptosporidium parvum; settings: 1 mM; 24 h
[13] = tested on: HCT-8 cells; assay: Transcriptomics; format: cell-based, human; settings: 880 μM; 4 or 12 h; FDR p < 0.05, absolute fold change > 2
[14] = tested on: HCT-8 AhR WT cells or AhR KO cells; assay: Seahorse XF Cell Energy Phenotype Test on HCT-8 AhR WT and AhR KO cells; format: cell-based, human; settings: 18 h; 0.5, 1 or 2 mM; both HCT-8 WT and AhR KO cells

SMILES: Cc1c[nH]c2ccccc12 [3-methylindole]
Effect on Cp infection in the indole analog screen [1]: did inhibit Cp

EC50 [1]: 1260 µM
SMILES: Oc1cccc2[nH]ccc12 [4-Hydroxyindole]
Effect on Cp growth in the primary metabolite screen [2]: significantly inhibited Cp growth

SMILES: O=C(O)Cc1c[nH]c2ccc(O)cc12 [5-Hydroxyindole-3-acetic acid]
Effect on Cp growth in the primary metabolite screen [2]: no effect on Cp

SMILES: N#Cc1cccc2cc[nH]c12 [7-cyanoindole]
Effect on Cp growth, treatment 0–4 hpi only [3]: neither indole nor 7CNI inhibited Cp growth | Effect on Cp infection, treatment started 4 hpi (4–24 hpi) [3]: significantly inhibited Cp infection | Effect on Cp life cycle progression [4]: delayed progression through sequential life cycle stages | Time after washout to significant recovery in Cp growth [5]: 4 days | EC50 [5]: 379 µM | EC90 [5]: 688 µM | ATP production rate by glycolysis [6]: remained similar between all treatments | ATP production rate by the mitochondria [6]: significant reduction in ATP production rate by the mitochondria | MitoTracker staining of Cp mitosomes [7]: significantly decreased MitoTracker staining of Cp mitosomes | Body weight [8]: weighed significantly more than vehicle- or indole-treated mice 5 and 7 dpi | Survival rate [8]: did not significantly increase survival rate

SMILES: N#CC(C#N)=NNc1cccc(Cl)c1 [CCCP, carbonyl cyanide m-chlorophenyl hydrazone]
MitoTracker staining of Cp mitosomes [7]: decreases MitoTracker staining in the Cp mitosome | EC50 ([9]; HCT-8 cells, 24 h): 5 µM | Host toxicity [10]: observed host toxicity

SMILES: C[C@H](CCC(=O)O)[C@H]1CC[C@H]2[C@@H]3CC[C@@H]4C[C@H](O)CC[C@]4(C)[C@H]3C[C@H](O)[C@]12C [Deoxycholate, sodium deoxycholate]
Effect on Cp growth in the primary metabolite screen [2]: significantly inhibited Cp growth | Host toxicity in the initial screen [11]: significant host toxicity at 1 mM

SMILES: C[C@H](CCC(=O)O)[C@H]1CC[C@H]2[C@@H]3CC[C@@H]4C[C@H](O)CC[C@]4(C)[C@H]3C[C@H](O)[C@]12C [Deoxycholic acid]
Effect on Cp growth in the primary metabolite screen [2]: significantly inhibited Cp growth | Host toxicity in the initial screen [11]: significant host toxicity at 1 mM

SMILES: NC(=O)Cc1c[nH]c2ccccc12 [Indole-3-acetamide]
Effect on Cp infection in the indole analog screen [1]: exceptions

SMILES: O=C(O)CCc1c[nH]c2ccccc12 [Indole-3-propionic acid]
Effect on Cp infection in the indole analog screen [1]: did inhibit Cp

SMILES: c1ccc2[nH]ccc2c1 [Indole]
Effect on Cp growth in the primary metabolite screen [2]: significantly inhibited Cp growth | EC50 [1]: 411 µM | Cp sensitivity to inhibition in AhR KO cells [12]: remained sensitive | Effect on Cp growth, treatment 0–4 hpi only [3]: neither indole nor 7CNI inhibited Cp growth | Effect on Cp infection, treatment started 4 hpi (4–24 hpi) [3]: significantly inhibited Cp infection | Effect on Cp infection of pre-treatment of host cells ([3]; 20 h before infection): did not affect subsequent Cp infection | Morphology of mature merozoites ([4]; 22 h, 1E12 labeling): did not observe any obvious morphological defects in mature merozoites | Effect on Cp life cycle progression [4]: delayed progression through sequential life cycle stages | Cp growth recovery after washout ([5]; treated at 2 × EC90 for two days): no recovery was observed | Time after washout to significant recovery in Cp growth [5]: 2 days | Cp growth recovery after washout ([5]; treated at EC90 for two days): Some growth recovery (though not significant) | EC50 [5]: 577 µM | EC90 [5]: 1890 µM | Downregulated genes [13]: 11 genes | Genes significantly differentially expressed after treatment [13]: 68 genes | Upregulated genes [13]: 57 genes | ATP production rate by glycolysis [6]: remained similar between all treatments | ATP production rate by the mitochondria [6]: significant reduction in ATP production rate by the mitochondria | Basal and maximal levels of mitochondrial respiration (OCR) [6]: significantly reduced both basal levels and maximal levels of mitochondrial respiration | Spare respiratory capacity [6]: diminished | Total ATP production rate [6]: lower total ATP production rate | Mitochondrial basal and stressed respiratory rate [14]: significantly impaired in a dose-dependent manner | MitoTracker staining of Cp mitosomes [7]: significantly decreased MitoTracker staining of Cp mitosomes | Cp oocysts shed in the feces [8]: no significant effect on Cp infection in vivo | Median survival time [8]: 17 dpi

SMILES: C[C@H](CCC(=O)O)[C@H]1CC[C@H]2[C@@H]3CC[C@@H]4C[C@H](O)CC[C@]4(C)[C@H]3CC[C@]12C [Lithocholic acid]
Effect on Cp growth in the primary metabolite screen [2]: significantly inhibited Cp growth | Host toxicity in the initial screen [11]: significant host toxicity at 1 mM

SMILES: CCCCC[C@H](O)/C=C/[C@H]1[C@H](O)CC(=O)[C@@H]1C/C=C\CCCC(=O)O [Prostaglandin E2]
Host toxicity in the initial screen [11]: significant host toxicity at 1 mM

EC50 [1]: 213 µM | Fold Selectivity (HCT-8 EC50 divided by Cp EC50) ([1]; host value from nuclei count): 44.6 fold
SMILES: Cc1ncc(CO)c(C=O)c1O [Pyridoxal hydrochloride]
Effect on Cp growth in the primary metabolite screen [2]: significantly inhibited Cp growth

SMILES: O=C(O)C(O)Cc1c[nH]c2ccccc12 (stereo not drawn) [indole-3-lactic acid]
Effect on Cp infection in the indole analog screen [1]: exceptions

SMILES: CC[C@H]1/C=C/C=C/C[C@@H](C)[C@H](O)[C@@](C)(O)C(=O)[C@@H](C)[C@H](O)[C@@H](C)C(=O)[C@@H](C)[C@H](O)[C@@H](C)/C=C/C(=O)O[C@@H]2[C@H](C)[C@H](CC1)O[C@]1(CC[C@H](C)[C@H](C[C@@H](C)O)O1)[C@H]2C [oligomycin]
EC50 ([9]; Cryptosporidium parvum, HCT-8, 24 h): 20.6 µM
